The values that follow are results of earlier work, collected in patent US8945630B2, “Method of producing and applications of composition of hypochlorous acid” (Aquilabs S.A., priority 2008, dated 2015).

For the data set the following is noted: at 25° C.

As to `OCl` [Hypochlorous acid], the dissociation constant is recorded as 2.9×10^−8.
